# Laboratory results published in patent publication US20260263550A1, “METHODS AND COMPOSITIONS FOR TREATING, PREVENTING, INHIBITING, AMELIORATING OR DELAYING THE ONSET OF OPHTHALMIC CONDITIONS” (Stealth BioTherapeutics Inc., priority 2021, published 2026).
# Tests used:
# [1] = tested on: iPSC-derived RPE cells from AMD donors; assay: Microarray analysis of gene expression on in vitro Bruch's membrane model; format: cell-based, human; conditions: AMD-derived RPE on nitrite-modified ECM, 10, 100, 1000 nM, 24 hours
# Method: (§1) General. iPSC-derived RPE were generated from AMD patients (2 atrophic; 1 exudative) and patients with no history of AMD (n=3). To test the therapeutic efficacy of elamipretide and compound of Formula IIa, cell viability was analyzed on nitrite-modified extracellular matrix (ECM), a typical modification of aged Bruch's membrane, for 24 hrs. DNA microarrays were used to elucidate gene expression in AMD-derived RPE cultured on nitrite-modified ECM.
# Microarray analysis. iPSC-derived RPE cells from AMD donors (n=3; 2 atrophic with GA, 1 exudative) were treated with drug (elamipretide or compound of Formula IIa) as described below and cultured on an in vitro Bruch's membrane model for 24 hours.
# • AMD donors only (n=3 individual donors) • Cells treated with elamipretide (also referred to as “309” in the figures) at 10 nM, 100 nM and 1000 nM • Cells treated with compound of Formula IIa (also referred to as “146c” in the figures) at 10 nM, 100 nM, 1000 nM
# Microarray studies using Affymetrix GeneChip Human Clariom™ S Assay were performed as described in Gong et al. (2020).
# [2] = Uptake in plasma and compartments of the eye in a rabbit model (subcutaneous or topical ocular dosing); format: in vivo, Dutch Belted Rabbits
# Method: 3 mg/mL elamipretide or compound of Formula IIa in saline was dosed subcutaneously at 1.5 mg/kg. A 3 mg/mL elamipretide or compound of Formula IIa formulation was prepared by dissolving 81 mg elamipretide in a total volume of 27 mL of sterile saline and mixing well. • (ii) Groups 2 & 4: Topical Ocular Formulation for administration of elamipretide or compound of Formula IIa
# For each preparation (i.e., elamipretide or compound of Formula IIa, sodium chloride (105 mg) was dissolved in 16 mL of water for injection with mixing. With mixing, 82.8 mg of sodium phosphate monobasic, monohydrate was then added. With mixing, 0.400 mL of a 5 mg/mL benzalkonium chloride solution in water (to be prepared by diluting 0.100 mL of a 50% benzalkonium chloride solution in water to 10 mL with water for injection) was then added. Two hundred (200) mg of elamipretide or compound of Formula IIa was then added with mixing and the formulation pH was adjusted to 5.8 (+/−0.1) with 1 M sodium hydroxide in water solution. The final volume of the formulation was then be brought to 20 mL using water for injection. Each formulation (elamipretide or compound of Formula IIa) was used for topical ocular administration at a dose of 50 μL/eye OU.
# A total of 48 male Dutch Belted Rabbits were used in the study. Each animal was approximately 2 kg.
# For subcutaneous administration, rabbits were dosed via a single subcutaneous injection of 1.5 mg/kg and at the scruff of the neck between the shoulder blades using a syringe with an attached 27G×½ inch needle (or similar). The site of injection was checked to ensure no leakage of dose immediately following administration.
# For topical administration, a calibrated Gilson positive displacement pipette was used to administer 50 μL of formulation onto the globe the eye while the lower eyelid was pulled away from the globe. Administration was twice daily (i.e., BID). Doses were administered to both eyes, every 8 to 12 hours for 11 total doses.
# Terminal blood samples (approximately 6 mL) were collected from two animals/group/timepoint via the central ear artery at approximately 0.5, 1, 2, 4, 8, and 24 hours postdose. Blood samples were collected into tubes containing K2EDTA as the anticoagulant and inverted several times to ensure adequate mixing of blood and anticoagulant and placed on ice. Within 30 min of collection, samples were centrifuged to harvest plasma and stored at −80° C. until analyzed.
# Following blood collection, designated animals were euthanized by barbiturate overdose. Following euthanasia, both eyes of each rabbit were harvested and dissected for collection of ocular tissue and fluid. Optic nerve and retina were collected from Group 1 and 3 animals, and aqueous humor, retina, conjunctiva, cornea, sclera, and optic nerve were collected from Group 2 and 4 animals. Following dissection, all fluids and tissues were placed in pre-tared tubes, weight collected, and then flash frozen on dry ice and placed in a freezer at −80° C. or lower until analyzed. Concentrations of test article in plasma in the ocular tissues (ng/g tissue) and fluids (ng/mL fluid) were determined utilizing a method previously developed by the CRO.
# [3] = tested on: iPSC-derived RPE cells from AMD donors; assay: Cell viability assay on nitrite-modified ECM (Real Time-Glo MT Cell Viability Assay); format: cell-based, human; conditions: 10, 100, 1000 nM; 24 hours; versus vehicle-treated cells; FIG. 8J, *p<0.05
# Method: as §1
# Preparation of RPE cell-derived ECM and nitrite-modified ECM RPE cell-derived ECM plates were prepared from ARPE-19 cells as described in Wang et al., Curr Eye Res. 30:691-702 (2005); Fields et al. (2017); and Moreira et al., Transl Vis Sci Technol. 4:10 (2015). ECM on 96-well plates were used to create two experimental plating surfaces (nontreated ECM and nitrite-modified ECM). Nitrite-modified ECM was prepared by adding 100 mM sodium nitrite to ECM followed by incubation at 37° C. for 7 days. Plates were then washed with DPBS and incubated with DPBS for 4 hours to completely remove the nitrite. […]
# Cell viability was measured by Real Time-Glo MT Cell Viability Assay (Promega, Madison, WI, www.promega.com) according to the manufacturer's protocol. […] Luminescent signals were acquired using a BioTek FLx800 plate reader (BioTek).
# [4] = tested on: iPSC-derived RPE cells from AMD donors; assay: Measurement of mitochondrial function (Seahorse XF Cell Mito Stress Test); format: cell-based, human; conditions: 10, 100, 1000 nM, treatment began 24 hours prior to assay, FIGS. 8AA-8AL
# Method: Measurement of mitochondrial function. Analysis of mitochondrial function was performed on live iPSC-derived RPE cells from AMD donors (n=3; 2 atrophic with GA, 1 exudative) treated with drug (elamipretide, compound of Formula IIa, or vehicle) as described below and iPSC-derived RPE cells from non-diseased controls (n=2) using the XFe96 Extracellular Flux Analyzer (Agilent Technologies, Santa Clara, California, www.agilent.com) and the Seahorse XF Cell Mito Stress Test (CMST) Kit (Agilent Technologies). iPSC-derived RPE cells were seeded onto a laminin-coated Seahorse XF plates and grown until confluent. Data were normalized by cell count. Drug treatments began 24 hours prior to assay. […]
# Cells were stained with DAPI and counted by ImageJ software (National Institute of Health, Bethesda, Maryland, www.nih.gov). […] Oxygen consumption rate was detected under basal conditions followed by the sequential addition of oligomycin, carbonyl cyanide 4-(trifluoromethoxy) phenylhydrazone (FCCP), rotenone, and antimycin A. From these sequential additions, the following parameters can be derived: basal respiration, ATP production, maximal respiration, and spare respiratory capacity.
# [5] = at 24 weeks of treatment; Pieramici & Ehlers, slide 15; cited from earlier work
substance,measurement,setting,value
elamipretide [reference compound],expression of complement regulatory genes including CFHR2,[1]; FIG. 8S,increase expression
same,"expression of complement component genes (C1R, C3, C4A) increased by nitration of ECM",[1]; FIGS. 8L-8P,reverse this trend
same,"expression of mitochondrial-related genes, such as CYP24A1 and GLS",[1]; FIGS. 8W-8Z,altered the expression
same,"concentration in plasma, elamipretide compared with compound of Formula IIa","[2]; SC 1.5 mg/kg single dose or topical eye drops BID, 11 doses, FIGS. 1A, 1B",roughly equivalent
same,"concentration accumulated in the retina, compared with the other test article","[2]; regardless of mode of administration (topical or subcutaneous), FIGS. 2A, 2B",much lower
same,AMD-derived RPE cell viability on nitrite-modified ECM,[3],significantly enhanced
same,mitochondrial function (ATP production; basal respiration; maximal respiration; spare respiratory capacity),[4],efficacy in improving mitochondrial function
same,Average BCVA and LLVA in NCGA and HRD patients,[5],improved significantly
